{"source": "patent US20170050957A1", "about": "“4-AMINO-6-(HETEROCYCLIC)PICOLINATES AND 6-AMINO-2-(HETEROCYCLIC)PYRIMIDINE-4-CARBOXYLATES AND THEIR USE AS HERBICIDES” (Dow AgroSciences LLC, priority 2013, published 2017)", "key": {"[1]": {"tested_on": "Key Broadleaf Weed and Crop Species", "test": "Post-emergent Test II herbicidal activity (Table 15)", "assay_type": "in vivo", "conditions": "post-emergence, 336 h, 14 d; for pest or weed control at 35 g/ha: 35 g ai/ha; for pest or weed control at 70 g/ha: 70 g ai/ha; for pest or weed control at 140 g/ha: 140 g ai/ha", "summary_of_the_method": "(§1)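 Herbicidal effect scored as percent visual injury, 14 d after post-emergent application. Spray solutions contained acetone, DMSO, isopropyl alcohol, crop oil concentrate and surfactant, applied at 187 L/ha to young plants (1-2 true leaves).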"}, "[2]": {"tested_on": "Key Grass and Sedge Weeds as well as Grass Crops", "test": "Post-emergent Test II herbicidal activity (Table 16)", "assay_type": "in vivo", "conditions": "post-emergence, 336 h, 14 d; for pest or weed control at 35 g/ha: 35 g ai/ha; for pest or weed control at 70 g/ha: 70 g ai/ha; for pest or weed control at 140 g/ha: 140 g ai/ha", "summary_of_the_method": "as §1"}, "[3]": {"conditions": "Abutilon theophrasti, velvetleaf (Abutilon theophrasti), read-out: Visual Growth Reduction (%) 14 Days After Application, ABUTH"}, "[4]": {"conditions": "Amaranthus retroflexus, redroot pigweed (Amaranthus retroflexus), read-out: Visual Growth Reduction (%) 14 Days After Application, AMARE"}, "[5]": {"conditions": "Brassica napus, oilseed rape, canola (Brassica napus), read-out: Visual Growth Reduction (%) 14 Days After Application, BRSNN"}, "[6]": {"conditions": "Chenopodium album, lambsquarters (Chenopodium album), read-out: Visual Growth Reduction (%) 14 Days After Application, CHEAL"}, "[7]": {"conditions": "Euphorbia heterophylla, wild poinsettia (Euphorbia heterophylla), read-out: Visual Growth Reduction (%) 14 Days After Application, EPHHL"}, "[8]": {"conditions": "Helianthus annuus, sunflower (Helianthus annuus), read-out: Visual Growth Reduction (%) 14 Days After Application, HELAN"}, "[9]": {"conditions": "Cyperus esculentus, yellow nutsedge (Cyperus esculentus), read-out: Visual Growth Reduction (%) 14 Days After Application, CYPES"}, "[10]": {"conditions": "Echinochloa crus-galli, barnyardgrass (Echinochloa crus-galli), read-out: Visual Growth Reduction (%) 14 Days After Application, ECHCG"}, "[11]": {"conditions": "Oryza sativa, rice (Oryza sativa), read-out: Visual Growth Reduction (%) 14 Days After Application, ORYSA"}, "[12]": {"conditions": "Setaria faberi, giant foxtail (Setaria faberi), read-out: Visual Growth Reduction (%) 14 Days After Application, SETFA"}, "[13]": {"conditions": "Triticum aestivum, wheat, spring (Triticum aestivum), read-out: Visual Growth Reduction (%) 14 Days After Application, TRZAS"}, "[14]": {"conditions": "Zea mays, maize, corn (Zea mays), read-out: Visual Growth Reduction (%) 14 Days After Application, ZEAMX"}}, "note": "Read-outs that look alike come from different tables or passages of the source.", "data": [{"smiles": "C=Cc1c(C(=O)O)nc(-c2ccc3cc[nH]c3c2F)c(F)c1N", "note": "[Compound 1.19]", "values": [{"measurement": "pest or weed control at 35 g/ha", "setting": "[1]; [3]", "value": "95 to 100", "unit": "%"}, {"measurement": "pest or weed control at 70 g/ha", "setting": "[1]; [3]", "value": "95 to 100", "unit": "%"}, {"measurement": "pest or weed control at 140 g/ha", "setting": "[1]; [3]", "value": "95 to 100", "unit": "%"}, {"measurement": "pest or weed control at 35 g/ha", "setting": "[1]; [4]", "value": "95 to 100", "unit": "%"}, {"measurement": "pest or weed control at 70 g/ha", "setting": "[1]; [4]", "value": "95 to 100", "unit": "%"}, {"measurement": "pest or weed control at 140 g/ha", "setting": "[1]; [4]", "value": "95 to 100", "unit": "%"}, {"measurement": "pest or weed control at 35 g/ha", "setting": "[1]; [5]", "value": "95 to 100", "unit": "%"}, {"measurement": "pest or weed control at 70 g/ha", "setting": "[1]; [5]", "value": "95 to 100", "unit": "%"}, {"measurement": "pest or weed control at 140 g/ha", "setting": "[1]; [5]", "value": "95 to 100", "unit": "%"}, {"measurement": "pest or weed control at 35 g/ha", "setting": "[1]; [6]", "value": "95 to 100", "unit": "%"}, {"measurement": "pest or weed control at 70 g/ha", "setting": "[1]; [6]", "value": "95 to 100", "unit": "%"}, {"measurement": "pest or weed control at 140 g/ha", "setting": "[1]; [6]", "value": "95 to 100", "unit": "%"}, {"measurement": "pest or weed control at 35 g/ha", "setting": "[1]; [7]", "value": "95 to 100", "unit": "%"}, {"measurement": "pest or weed control at 70 g/ha", "setting": "[1]; [7]", "value": "95 to 100", "unit": "%"}, {"measurement": "pest or weed control at 140 g/ha", "setting": "[1]; [7]", "value": "95 to 100", "unit": "%"}, {"measurement": "pest or weed control at 35 g/ha", "setting": "[1]; [8]", "value": "60 to 74", "unit": "%"}, {"measurement": "pest or weed control at 70 g/ha", "setting": "[1]; [8]", "value": "75 to 84", "unit": "%"}, {"measurement": "pest or weed control at 140 g/ha", "setting": "[1]; [8]", "value": "95 to 100", "unit": "%"}, {"measurement": "pest or weed control at 35 g/ha", "setting": "[2]; [9]", "value": "85 to 94", "unit": "%"}, {"measurement": "pest or weed control at 70 g/ha", "setting": "[2]; [9]", "value": "75 to 84", "unit": "%"}, {"measurement": "pest or weed control at 140 g/ha", "setting": "[2]; [9]", "value": "95 to 100", "unit": "%"}, {"measurement": "pest or weed control at 35 g/ha", "setting": "[2]; [10]", "value": "85 to 94", "unit": "%"}, {"measurement": "pest or weed control at 70 g/ha", "setting": "[2]; [10]", "value": "85 to 94", "unit": "%"}, {"measurement": "pest or weed control at 140 g/ha", "setting": "[2]; [10]", "value": "95 to 100", "unit": "%"}, {"measurement": "pest or weed control at 35 g/ha", "setting": "[2]; [11]", "value": "30 to 44", "unit": "%"}, {"measurement": "pest or weed control at 70 g/ha", "setting": "[2]; [11]", "value": "45 to 59", "unit": "%"}, {"measurement": "pest or weed control at 140 g/ha", "setting": "[2]; [11]", "value": "60 to 74", "unit": "%"}, {"measurement": "pest or weed control at 35 g/ha", "setting": "[2]; [12]", "value": "60 to 74", "unit": "%"}, {"measurement": "pest or weed control at 70 g/ha", "setting": "[2]; [12]", "value": "75 to 84", "unit": "%"}, {"measurement": "pest or weed control at 140 g/ha", "setting": "[2]; [12]", "value": "85 to 94", "unit": "%"}, {"measurement": "pest or weed control at 35 g/ha", "setting": "[2]; [13]", "value": "60 to 74", "unit": "%"}, {"measurement": "pest or weed control at 70 g/ha", "setting": "[2]; [13]", "value": "75 to 84", "unit": "%"}, {"measurement": "pest or weed control at 140 g/ha", "setting": "[2]; [13]", "value": "75 to 84", "unit": "%"}, {"measurement": "pest or weed control at 35 g/ha", "setting": "[2]; [14]", "value": "60 to 74", "unit": "%"}, {"measurement": "pest or weed control at 70 g/ha", "setting": "[2]; [14]", "value": "60 to 74", "unit": "%"}, {"measurement": "pest or weed control at 140 g/ha", "setting": "[2]; [14]", "value": "85 to 94", "unit": "%"}]}]}
